Measurements from patent US9284528B2, “Use of stem cell conditioned medium to inhibit oxidation for anti-aging skin” (GROWGENE BIOTECH INC., priority 2014, dated 2016).

Assay: ABTS free radicals scavenging assay (antioxidant assay kit, Cayman)
Type: biochemical
Settings: 0.0625-1 mM tested; 5 minutes room temperature; absorbance 750 nm
Description: An antioxidant assay kit (Cayman) was used for this assay according to the instructions. Each of samples including 10 μl of 6.25%˜100% conditioned medium or 0.0625˜1 mM L-ascorbic acid (L-AA) was mixed with 10 μl of metmyoglobin, 150 μl chromogen, and 40 μl hydrogen peroxide for reaction at room temperature for 5 minutes. Because stem cell conditioned medium (CM) is a composite component, a percentage (%) instead of a concentration (mM) is presented as the unit of CM herein.
Referring to FIG. 2A, it is a representative diagram showing the effect of WJMSC-CM on scavenging ABTS free radicals. Various concentration of L-ascorbic acid (L-AA) or stem cell conditioned medium (CM) was mixed with an appropriate amount of ABTS and oxidants for reaction. ABTS has an absorption peak at 750 nm. This assay is based on the ability of antioxidants to reduce ABTS into its colourless form and the extent of decolourisation corresponding to the absorbance reduction of ABTS.

- IC50: 806 µM
SMILES: O=C1O[C@H]([C@@H](O)CO)C(O)=C1O [L-ascorbic acid]
